From patent EP4796171A2 (Zealand Pharma A/S, priority 2017, dated 2018)
Where “and” joins values, the source holds several entries; their conditions need not be identical. Equal values may be shown once. Entries after “also recorded” stand apart in the source; their conditions may differ. Read-outs that look alike come from different tables or passages of the source.

Tests used:
human GLP-2 receptors = biological target: T1, human GLP-2 receptors (Homo sapiens, UniProt O95838, D470N); assay: GLP-2 receptor efficacy assay (cAMP AlphaScreen); format: cell-based
T1 sequence (O95838 1-553 D470N): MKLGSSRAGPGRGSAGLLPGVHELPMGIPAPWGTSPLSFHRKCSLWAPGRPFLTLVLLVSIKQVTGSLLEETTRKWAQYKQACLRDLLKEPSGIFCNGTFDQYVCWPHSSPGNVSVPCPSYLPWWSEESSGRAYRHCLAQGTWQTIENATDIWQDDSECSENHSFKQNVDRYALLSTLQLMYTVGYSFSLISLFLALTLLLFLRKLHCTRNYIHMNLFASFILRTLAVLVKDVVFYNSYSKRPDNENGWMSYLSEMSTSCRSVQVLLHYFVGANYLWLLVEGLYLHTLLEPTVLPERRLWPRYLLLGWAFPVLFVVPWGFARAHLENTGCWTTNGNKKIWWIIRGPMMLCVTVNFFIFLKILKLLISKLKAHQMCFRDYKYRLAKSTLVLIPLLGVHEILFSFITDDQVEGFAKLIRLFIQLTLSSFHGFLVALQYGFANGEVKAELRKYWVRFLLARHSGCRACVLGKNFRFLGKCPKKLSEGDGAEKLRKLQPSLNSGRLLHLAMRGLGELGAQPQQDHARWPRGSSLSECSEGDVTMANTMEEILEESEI
From the text: The hGLP2-R was purchased from MRC-geneservice, Babraham, Cambridge as an Image clone: 5363415 (11924-117). For subcloning into a mammalian expression vector, primers for subcloning were obtained from DNA-Technology, Risskov, Denmark. The 5' and 3' primers used for the PCR reaction include terminal restriction sites for cloning and the context of the 5' primer is modified to a Kozak consensus without changing the sequence of the product encoded by the ORF. A standard PCR reaction was run using Image clone 5363415 (11924-117) as a template with the above mentioned primers and Polymerase Herculase II Fusion in a total vol. of 50µl. The generated PCR product was purified using GFX PCR and Gel band purification kit, digested with restriction enzymes and cloned into the mammalian expression vector using Rapid DNA Ligation Kit. Ligation reaction was transformed to XL10 Gold Ultracompetent cells and colonies were picked for DNA production using Endofree Plasmid maxi kit. Subsequent sequence analysis was conducted by MWG Eurofins, Germany.
HEK293 cells were transfected using the Lipofectamine PLUS transfection method. The day before transfection, HEK293 cells were seeded in two T75 flasks at a density of 2 x 10^6 cells / T75 flask in cell culturing medium without antibiotics. On the day of transfection, cells were washed with 1x DPBS and medium was replaced with Optimem to a volume of 5 mL / T75 flask before addition of Lipofectamine-plasmid complexes were added gently and drop wise to the cells in T75 flasks and replaced with growth medium after 3 hours and again to growth medium supplemented with 500µg/mL G418 after 24 hours. After 4 weeks in G418 selection, clones were picked and tested in a functional assay.
The cAMP AlphaScreen® assay from Perkin Elmer was used to quantitate the cAMP response to activation of the GLP2 receptor. […] Table 2: GLP-2R EC50 measurements

[1] = Phase 2 clinical trial, PK profile of ZP1848 and metabolites in SBS patients; format: in vivo, human; conditions: for Conc.: plasma
Experimental: A phase 2 clinical trial was conducted to i.a. determine the PK profile of ZP1848 and metabolites in human SBS patients.
The study was designed as a randomized, cross-over and double-blinded with three different doses of ZP1848 (10 mg, 1 mg, 0.1 mg) in 16 SBS patients.
The 18 SBS patients (16 patients completed the study) were randomized evenly and in a double-blinded fashion to each of the six cross-over dose level combinations: 10 mg/1 mg, 10 mg/0.1 mg, 1 mg/10 mg, 1 mg/0.1 mg, 0.1 mg/10 mg, 0.1 mg/1 mg of ZP1848. The patients were injected once daily (QD) subcutaneously with the above doses of ZP1848.
Blood samples for PK analysis were collected on several study visits throughout the study period: the study comprised a 1st baseline balance study (4 days), a 1st treatment period (21 days) including a 1st treatment balance study (last 4 days of 1st treatment period), followed by a wash-out period (at least 4 weeks); and a 2nd baseline balance study (4 days), a 2nd treatment period (21 days) including a 2nd treatment balance study (last 4 days of 2nd treatment period) and a follow-up period (at least 4 weeks).
PK sampling was performed at visit 11 (1st treatment, balance study) and visit 17 (second day of 2nd baseline study - after a wash out period), and again at visit 25 (2nd treatment balance study) and at visit 29 (last day of follow-up period).
At day visit 11 and visit 25 a full PK profile in steady state was investigated. PK samples were taken prior to injection of ZP1848, and at the following time points (+/- 10 minutes) after trial product administration: 1h, 2h, 4h, 6h, 8h, 10h, 12h and 24h. Each PK sample contained 2 mL of blood, resulting in a total of […] blood drawn for PK purposes. The plasma sample was immediately stored at -80°C after sampling.
Plasma samples were analyzed after immunoaffinity extraction followed by liquid chromatography mass spectrometry (LC-MS/MS). For each patient plasma concentrations were used for calculation of the pharmacokinetic parameters using the non-compartmental approach in Excel. Plasma terminal elimination half-life (T½) was determined as In(2)/ke where ke is the magnitude of the slope of the log linear regression of the log concentration versus time profile during the terminal phase.

[2] = plasma samples from SBS patients injected once daily (QD) subcutaneously with ZP1848; conditions: human, up to Day 56
[3] = plasma of healthy subjects after SC injections (once daily or once weekly) or single IV infusion of glepaglutide; conditions: human, up to 168 hours post dose
Beagle Dogs = assay: 39-week subcutaneous administration to beagle dogs with 6-week recovery, intestine length and weight; format: in vivo; conditions: vs controls
Experimental: ZP1848 (0.25, 1 or 5 mg/kg/day) was given for 39 weeks subcutaneously to beagle dogs (22 to 24 weeks). Vehicle was used as the control. Recovery from any effect was evaluated during a 6 week recovery period. The study was conducted in accordance with the applicable sections of the United Kingdom Animals (Scientific Procedures) Act 1986, Amendment Regulations 2012 (the Act).
After 39 weeks the dogs were sacrificed and all animals were subject to a detailed necropsy. The length of the small and large intestines were measured separately and recorded in centimeters. The entire length of the gastrointestinal tract (starting at the duodenum and ending at the rectum) was removed and trimmed of any excessive mesentery, connective or adipose tissue and the measurements for the small and large intestine recorded by laying the small intestine and large intestine on a clean surface and measured with a tape measure. The sections required for histopathology were left unopened and flushed through with water. The remainder were opened, cleaned with water, carefully blotted dry prior to weighing. On completion of length and weight measurements, the gastrointestinal tract was processed and fixed in 10% Neutral Buffered Formalin, as per standard necropsy practice for this species.

SBS patients = assay: Fecal wet weight output in SBS-IF/SBS-II patients (metabolic balance studies); format: in vivo, human; conditions: change from baseline
Experimental: The study was designed as a randomized, cross-over and double-blinded with three different doses of ZP1848 (10 mg, 1 mg, 0.1 mg) in 16 SBS patients. The study protocol was approved by the Danish Medical Agency and The Danish Committee on Health Research Ethics.
The 18 SBS patients were randomized evenly and in a double-blinded fashion to each of the six cross-over dose level combinations: 10 mg/1 mg, 10 mg/0.1 mg, 1 mg/10 mg, 1 mg/0.1 mg, 0.1 mg/10 mg, 0.1 mg/1 mg of ZP1848. The SBS patient group comprised 9 females, 9 males; hereof 13 SBS-IF patients and 5 SBS-II patients. Mean age was 62 years, mean short bowel length was 110 cm, and two SBS-IF patients had > 50% colon in continuity. The patients were injected once daily subcutaneously with the above doses of ZP1848.
The aim of this study was to evaluate efficacy of ZP1848 on fecal wet weight output in patients with SBS-II and SBS-IF and thus the absolute change from baseline in wet weight of fecal output as measured by metabolic balance studies prior to and on the […] of each treatment period.

Wistar rats = assay: Intestinotrophic effects after 26 weeks of daily SC dosing in rats; format: in vivo
Experimental: Wistar rats were dosed subcutaneously (SC) with vehicle, 1, 3 and 10 mg/kg ZP1848 on a daily basis for 26 weeks. Further sub-groups of control and high-dose animals were allowed a 6-week recovery period following completion of the dosing period. […] The length and the weight of the small and large intestines were measured at necropsy as indicators of intestinotrophic effects and the intestinal tract was evaluated histologically.

[4] = background statement; cited from earlier work
[5] = females, 5 mg/kg/day SC, 39 weeks
[6] = females, end of six-week recovery period
[7] = males, 5 mg/kg/day SC, 39 weeks
[8] = males, end of six-week recovery period
[9] = females, 10 mg/kg SC daily, 26 weeks, main study animals
[10] = females, 10 mg/kg, recovery animals (6-week recovery)
[11] = males, 10 mg/kg SC daily, 26 weeks, main study animals
[12] = males, 10 mg/kg, recovery animals (6-week recovery)

H-HGEGSFSSELSTILDALAARDFIAWLIATKITDKKKKKK-NH2 [ZP1846]
EC50 (human GLP-2 receptors): 0.26 nM

H-HGEGTFSSELATILDALAARDFIAWLIATKITDKK-OH [ZP2711]
plasma level ([1]; in words, relative to ZP1848 after administration of ZP1848): in the same range as that of ZP1848
Conc. ([1]; Day 0 (visit 11 or 25, treatment balance study), ZP1848 SC once daily, individual subjects): 0.131 nM and 0.543 nM
Conc. ([1]; Day 28-56 (visit 17 or 29, after wash-out/follow-up), individual subjects): 0.0326 nM and 0.0614 nM
Half-life ([1]; terminal, from Day 0 and wash-out/follow-up concentrations, individual subjects): 240 h
EC50 (human GLP-2 receptors): 0.072 nM
in vitro potency (human GLP-2 receptors; in words, relative to ZP1848): comparable to ZP1848

H-HGEGTFSSELATILDALAARDFIAWLIATKITDKKK-OH [ZP2949]
EC50 (human GLP-2 receptors): 0.11 nM

H-HGEGTFSSELATILDALAARDFIAWLIATKITDKKKKKK-NH2
fragment found [2]: ZP2469, major; also recorded: ZP2711, major
fragment found [3]: ZP2469 (ZP18481-34), major; also recorded: ZP2711 (ZP18481-35), major

H-HGEGTFSSELATILDALAARDFIAWLIATKITDKKKKKK-NH2 [ZP1848] [listing 1 of 2 here]
increase in small intestine length (Beagle Dogs; [5]): 37%
increase in small intestine weight (Beagle Dogs; [5]): 80%
increase in small intestine length (Beagle Dogs; [6]): 19%
increase in small intestine weight (Beagle Dogs; [6]): 34%
increase in small intestine length (Beagle Dogs; [7]): 46%
increase in small intestine weight (Beagle Dogs; [7]): 103%
increase in small intestine length (Beagle Dogs; [8]): 16%
increase in small intestine weight (Beagle Dogs; [8]): 78%
Changes in Absolute Fecal Wet Weight Output (Means) (SBS patients; IF (n=11), 0.1 mg SC once daily): 196 g/day
Changes in Absolute Fecal Wet Weight Output (Means) (SBS patients; IF (n=11), 1 mg + 10 mg pooled): -741 g/day
Changes in Absolute Fecal Wet Weight Output (Means) (SBS patients; IF (n=11), 1 mg SC once daily): -587 g/day
Changes in Absolute Fecal Wet Weight Output (Means) (SBS patients; IF (n=11), 10 mg SC once daily): -894 g/day
Changes in Absolute Fecal Wet Weight Output (Means) (SBS patients; II (n=5), 0.1 mg SC once daily): -37 g/day
Changes in Absolute Fecal Wet Weight Output (Means) (SBS patients; II (n=5), 1 mg + 10 mg pooled): -570 g/day
Changes in Absolute Fecal Wet Weight Output (Means) (SBS patients; II (n=5), 1 mg SC once daily): -303 g/day
Changes in Absolute Fecal Wet Weight Output (Means) (SBS patients; II (n=5), 10 mg SC once daily): -837 g/day
Changes in Absolute Fecal Wet Weight Output (Means) (SBS patients; II+IF (n=16), 0.1 mg SC once daily): 173 g/day
Changes in Absolute Fecal Wet Weight Output (Means) (SBS patients; II+IF (n=16), 1 mg + 10 mg pooled): -713 g/day
Changes in Absolute Fecal Wet Weight Output (Means) (SBS patients; II+IF (n=16), 1 mg SC once daily): -592 g/day
Changes in Absolute Fecal Wet Weight Output (Means) (SBS patients; II+IF (n=16), 10 mg SC once daily): -833 g/day
SI length, percentage increase relative to control group (Wistar rats; [9]): 47%
SI weight, percentage increase relative to control group (Wistar rats; [9]): 238%
SI length, percentage increase relative to control group (Wistar rats; [10]): 45%
SI weight, percentage increase relative to control group (Wistar rats; [10]): 101%
length and weight of the small intestines (Wistar rats; in words, 1, 3 and 10 mg/kg SC daily, 26 weeks): dose-related significant (p<0.01) increases
length and weight of the large intestine (Wistar rats; in words, 26 weeks SC daily): slightly increased
mucosal hyperplasia of the duodenum, jejunum and ileum (Wistar rats; in words, histology, 26 weeks SC daily): dose-related increase
SI length, percentage increase relative to control group (Wistar rats; [11]): 38%
SI weight, percentage increase relative to control group (Wistar rats; [11]): 190%
SI length, percentage increase relative to control group (Wistar rats; [12]): 39%
SI weight, percentage increase relative to control group (Wistar rats; [12]): 85%

H-HGEGTFSSELATILDALAARDFIAWLIATKITDKKKKKK-NH2 [ZP1848] [listing 2 of 2 here]
EC50 (human GLP-2 receptors): 0.3 nM

lixisenatide
Half-life [4]: 2 to 4 h
